Assays:
[1] = test system: IoN-CCl Wistar rats; assay: IoN-CCl neuropathic pain model, von Frey filaments; type: in vivo, rat
Protocol: (§1) Chronic constriction injury (CCl) is a common neuropathic pain model. The unilateral ligature of the infraorbital nerve (IoN) in rats, as an animal model of peripheral neuropathic pain, and more specifically, trigeminal neuralgia and trigeminal neuropathy, was performed as described by Desuere and Hans (Deseure et al. J. Vis. Exp. 2015, 103, e53167). Wistar rats (46 in total) were randomly assigned to one of four experimental groups and then were behaviorally tested in a blinded manner. For studying the effects of subchronic treatment with the nanoemulsion formulation of DK-I-56-1 in IoN-CCl rats, DK-I-56-1 (10 mg/kg i.p.) or its vehicle (placebo nanoemulsion i.p.) were injected daily for 14 consecutive days after surgery. Sham-operated rats were treated in parallel. By a procedure slightly modified from Djordjevic et al. (Int. J. Pharm. 2015, 493, 40-54), biocompatible nanoemulsions were prepared by high pressure homogenization at 50° C. […] First, the response to the application of a graded series of three von Frey filaments onto ipsilateral vibrissal pad was measured on pre-operative days −3 and −1 and post-operative days 7, 14, 21, and 28. […] The other parameter, face grooming during body grooming, was manually assessed during 10 min of recording on pre-operative day −2 and post-operative days 2, 4, 8, and 15 (i.e. after 1, 3, 7, and 14 applications of treatment). […]

[2] = test system: IoN-CCl Wistar rats; assay: IoN-CCl model, face grooming during body grooming; type: in vivo, rat; conditions: 10 mg/kg i.p. daily; 10 min of recording
Protocol: as §1

For [2H]C([2H])([2H])Oc1ccc(-n2nc3c4ccc(OC)cc4[nH]cc-3c2=O)cc1 [DK-I-56-1, 7-Methoxy-2-(4-methoxy-d3-phenyl)-2,5-dihydro-3H-pyrazolo[4,3-c]quinolin-3-one], the “anti-allodynic effect, response score to von Frey filaments, post-operative days 14 and 21” value ([1]; 10 mg/kg i.p. nanoemulsion daily for 14 days after surgery) was “statistically significant”, the “anti-allodynic effect, post-operative day 28” value ([1]; 14 days after the last dose) was “disappeared” and the “face grooming during body grooming” value [2] was “lack of sedation-like or motor-impairing influences”.
